Experimental data reported in US10526416B2, “Anti-HER3 antibodies and uses of same” (Yeda Research and Development Co. Ltd., priority 2014, dated 2020).

How the values were obtained:
[1] = test system: EGFR phosphorylation; assay: Western blot of EGFR phosphorylation in PC9ER-AZDR cells; format: cell-based, human; details: 6 hours, 1 μM
Method: Cells were grown under specified conditions or treated as indicated. Following the cells were washed twice with cold PBS and scraped into lysis buffer [50 mM Hepes (pH 7.5), 10% glycerol, 150 mM NaCl, 1% Triton X-100, 1 mM EDTA, 1 mM EGTA, 10 mM NaF, 0.1 mM Na3VO4, and a complete protease inhibitor cocktail]. Thereafter, lysates were centrifuged at 14,000 g for 15 minutes at 4° C. The supernatant was used for subsequent procedures. Western blot analyses were conducted following protein separation using gel electrophoresis and transfer to nitrocellulose membranes. Immunoblotting was performed according to the antibody manufacturers' recommendation. Blocking was done using 5% milk in PBST (0.5% Tween20 Sigma Cat#P9416). Antibody binding to membrane blots was detected using horseradish peroxidase-secondary antibodies (Jackson ImmunoResearch Laboratories), followed by treatment with ECL Western blotting detection reagents (GE Healthcare).

[2] = test system: H1975 NSCLC cells; assay: H1975 NSCLC tumor growth in CD1-nu/nu mice; format: in vivo
[3] = test system: PC9ER-AZDR cells; assay: MTT assay on PC9ER-AZDR cells; details: 72 hours treatment
[4] = test system: BxPC3 xenografts; assay: BxPC3 cell xenografts in CD1-Nude mice; format: in vivo; details: 0.2 mg/injection IP every 3 days for 5 weeks, 7 to 8 mice per group
Method: (§1) FIGS. 15A-F show the effects of a mixture of two anti HER3 mAbs, in vivo on BxPC3 cell xenografts and in vitro. (FIGS. 15A-C) CD1-Nude mice were grafted subcutaneously with 5×10^6 BxPC3 cells. Once tumors became palpable (after 13 days), the mice were randomized into group of 8 mice and treated every 3 days for 5 weeks. The control group (CTRL) was injected intra-peritoneally (IP) with 200 μl PBS. The other groups were treated with mAb alone or in combination at a final concentration of 0.2 mg/0.2 ml of PBS per mouse. The mice were weighted once a week and the tumors measured twice a week. An average tumor size of 7-8 mice (+/−SEM) is shown. (FIGS. 15D-F) Proliferation assays using MTT were performed on BxPC-3. 5,000 cells per well were plated the day before and treated for 72 h with the indicated mAb treatment. Decreasing concentrations of the indicated mAb (alone or in combination) were used in medium supplemented with 1% serum and NRG (10 ng/ml).
All animal studies were approved by the Weizmann Institute's Review Board (IRB). Tumor bearing CD1/nude mice were randomized in groups of five-ten mice and injected subcutaneously in the right flank with cancer cells (3-5×10^6 per mouse depending on the cell line). mAbs were injected intraperitoneally at a total dose of 200 μg per mouse per injection, twice a week, for 5 weeks or until tumors reached the size of 1,500 mm^3. In experiments evaluating the effect of the TKI AZD-9291, Vehicle (Vehicle formulation: HPMC 0.5% (sigma Cat#56340), Tween80 0.1% (Sigma Cat #P8074 in water), Erlotinib at a dose of 50 mg/kg per injection, or AZD9291 at a dose of 1 or 5 mg/kg per injection were injected daily intraperitoneally. In one experiment (FIG. 16), mice were treated daily with Erlotinib at a dose of 50 mg/kg per injection until tumors reached a size of 800 mm^3 and only then were treated as indicated. Tumor volume and body weight were evaluated twice and once per week, respectively. Mice were euthanized when tumor size reached 1,500 mm^3. […] Survival of the tumor bearing mice was recorded and depicted by Kaplan-Meier analysis. […]

[5] = test system: BxPC3 cells; assay: MTT assay on BxPC3 cells in culture; format: cell-based, human; details: 3 days
Method: as §1
To determine if the combination of NG33 mAb with another anti-HER3 mAb is more efficient than using NG33 alone, the combination of two mAbs, NG33 and XC252, was tested on several tumor cell lines, which were grafted subcutaneously (gastric: N87, lung: A549, pancreatic: BxPC3, ovarian: OVCAR-5, and head and neck: CAL-27, FIG. 14). This pilot was performed with 3 mice per group. Mice were injected twice a week with the mAb combination or with PBS. The best responder of these in vivo models for solid tumor growth was the BxPC3 xenograft model. […] This experiment was performed on 7 to 8 mice per group. The mice were treated every 3 days with PBS, each mAb alone or a mAb combination, for 5 weeks (0.2 mg/injection). […] In order to reinforce the in vivo data, the cytotoxicity of each mAb alone or in combination with NG33 was tested on BxPC3 cells in culture (FIGS. 15D, 15E and 15F). Decreasing concentrations of mAb were used and a MTT assay was performed following 3 days of treatment. […] On the contrary, XC252 used alone has a […] cytotoxic impact on BxPC3 proliferation leading to 60% inhibition of cell survival at high concentration.

[6] = biological target: T1, IgB3 (Homo sapiens, UniProt P21860); assay: Antibody competition assay with Lumi4(Tb)-labeled NG33 on IgB3-coated plates; format: binding; details: NG33-K2 1 nM
T1 construct: To produce IgB3 (recombinant HER3 extracellular domain fused to a human IgG Fc domain); made in house
Method: FIGS. 12A-D show a combination of two mAbs directed to two different epitopes of HER3. (FIGS. 12A and 12B) The antibodies NG33 and XC252 were labeled with the fluorescent dye Lumi4® Tb Cryptate (K2). 96 well-plate were coated with IgB3 (1.5 μg/ml), blocked with PBS-BSA and incubated for 1 h with various concentrations of mAbs under gentle shaking at RT. The labeled mAb, NG33-K2 (FIG. 12A) or XC252-K2 (FIG. 12B), was then added at 1 nM final concentration. After ah incubation, the plate was washed 4 times with KREBS buffer, and the fluorescence intensity at 610 nm was measured using a fluorescence microplate reader. (FIG. 12C) The various anti-HER3 mAb combinations were studied for their ability to trigger HER3 degradation using N87 cells. Cells were treated for 2 h at 37° C. with mAb (10 μg/ml). After cell lysis and protein extraction, the samples were subjected to immunoblotting with the indicated antibodies. (FIG. 12D) The combination's capacity to modulate NRG-induced phosphorylation of HER3, AKT and ERK was evaluated using N87 cells. After 20 min treatment at 37° C. with 10 μg/ml of mAbs, NRG (20 ng/ml) was added to the cells for 10 min. The cells were then lysed, and equal quantities of lysate protein were electrophoresed before immunoblotting, as indicated.
Agent labeling was performed by Cisbio. […] Following 1 h incubation, the plate was washed 4 times with KREBS buffer (146 mM NaCl, 4 mM KCl, 0.5 mM MgCl2, 1 mM CaCl2, 10 mM Hepes, 1 gr/L glucose, and 1 mg/mL albumin), and the fluorescent intensity (excitation: 488 nm, emission: 610 nm) was measured using a fluorescence microplate reader. […] Finally, following two washes with KREBS buffer, the fluorescence intensity was measured at 670 nm (excitation: 620 nm).
Combinations of antibodies directed against two different epitopes of the same receptor, as has been previously shown, can improve the effect of treatment with a single mAb (28, 29). […] First, it was determined which antibody from the anti-HER3 series targets an epitope distinct from that targeted by NG33. […]

T1 sequence (P21860 20-643 limits assumed): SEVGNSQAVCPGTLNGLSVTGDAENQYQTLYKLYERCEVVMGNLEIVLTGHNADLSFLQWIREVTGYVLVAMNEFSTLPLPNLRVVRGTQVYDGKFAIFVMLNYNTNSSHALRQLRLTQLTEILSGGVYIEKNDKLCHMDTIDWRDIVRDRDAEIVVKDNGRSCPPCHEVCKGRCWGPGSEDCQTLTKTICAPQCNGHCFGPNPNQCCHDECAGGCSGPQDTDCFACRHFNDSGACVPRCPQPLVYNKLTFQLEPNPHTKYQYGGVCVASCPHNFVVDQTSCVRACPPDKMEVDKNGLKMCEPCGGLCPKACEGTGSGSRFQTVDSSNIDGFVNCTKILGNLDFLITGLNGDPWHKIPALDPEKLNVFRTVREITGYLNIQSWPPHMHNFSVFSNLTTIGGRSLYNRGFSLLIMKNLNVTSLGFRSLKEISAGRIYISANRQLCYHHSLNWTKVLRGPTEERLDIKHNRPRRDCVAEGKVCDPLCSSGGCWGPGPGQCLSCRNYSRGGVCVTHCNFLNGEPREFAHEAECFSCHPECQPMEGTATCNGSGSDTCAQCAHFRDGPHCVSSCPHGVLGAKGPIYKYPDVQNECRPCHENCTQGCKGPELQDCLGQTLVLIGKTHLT
T1 sequence (P01857 99-330 partner limits assumed): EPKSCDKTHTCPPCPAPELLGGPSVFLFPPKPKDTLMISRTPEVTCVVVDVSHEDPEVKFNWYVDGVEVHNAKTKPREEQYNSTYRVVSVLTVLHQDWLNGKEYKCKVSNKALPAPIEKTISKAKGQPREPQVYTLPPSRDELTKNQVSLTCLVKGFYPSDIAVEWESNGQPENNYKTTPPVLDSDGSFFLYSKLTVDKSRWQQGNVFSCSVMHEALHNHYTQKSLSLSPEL

## C=CC(=O)Nc1cc(Nc2nccc(-c3cn(C)c4ccccc34)n2)c(OC)cc1N(C)CCN(C)C [AZD-9291]
[1]
  EGFR phosphorylation in PC9ER-AZDR cells on exposure: EGFR remained phosphorylated
[2]; AZD9291 5 mg/kg/day or triple mAbs
  inhibition of H1975 tumor growth: comparably inhibited growth of the erlotinib-resistant human NSCLC
[2]; H1975 tumor-bearing mice, AZD9291 5 mg/kg/day
  body weight gain: slightly inhibited body weight gain compared with the triple mAb combination
[3]
  survival / sensitivity of PC9ER-AZDR cells (MTT): lost sensitivity to AZD-9291

B1: NG140: anti-HER3 mAb; light chain CDRs SEQ ID NOs: 13-15, heavy chain CDRs 16-18 (antibody, V domains shown)
VH: QVQLKESGPGLVKPSQSLSLTCSVTGYSITSGYYWNWIRQFPGNKLEWMGSIYYDGSNNYNPSLKNRISVTRDTSKNQFFLKLNSVTTEDTATYYCARDYDVGYAMDYWGQGASVTVSS
VL: DIVLTQSSSYLSVSLGGRVTITCKASDHINNWLAWYQQKPGNAPRLLISGATSLETGVPSRFSGSGSGKDYTLSITSLQTEDVATYYCQQYWSIPWTFGGGTKLEIK
modifications: VH chain of NG140 polypeptide; VL chain of NG140 polypeptide
[4]
  effect on BxPC3 xenograft tumor growth: no statistically significant ability to decrease tumor growth
[5]
  effect on BxPC3 proliferation/survival (in words): did not interfere with cell proliferation
[6]
  effect on binding of Lumi4(Tb)-labeled NG33 to IgB3: did not alter NG33 binding
